Laboratory results as given in US10016365B2, “Compositions and methods of tumor treatment utilizing nanoparticles” (priority 2015, dated 2018).
Like-named read-outs stand apart in the source and are kept apart here.

How the values were obtained:
[1] = system: human ovarian cancer cell line ES-2; type: in vivo; settings: regional delivery
Excerpt: (§1) Experiments were repeated in triplicate.
as §1, §1, §1, §1

CT-26-luc cells = assay: Antitumor activity in colon cancer syngeneic mice model (CT-26-luc i.p., BLI and survival); type: in vivo, BALB/c mice
Procedure: Tumor cell growth was determined by measuring bioluminescence images (BLI) using IVIS system. Treatments were initiated when the tumor dissemination (judged by luminescence activity) reached baseline. […] Survival of these animals was recorded.
Five-week-old female BALB/c mice were purchased from the National Laboratory Animal Breeding and Research Center of Taipei and maintained in the oncology animal facility of Taipei Veterans General Hospital, Taipei, Taiwan. The animals were used in compliance with the institutional animal health care regulations, and all of the animal experimental procedures were approved by the Institutional Animal Care and Use Committee.
Exact dosing volume was calculated using body weight. Control group was given 100 ul of 0.9% Sodium Chloride Injection.
BALB/c mice (6 weeks) were injected with 1×10^5 CT-26-luc cells in 250 ul opti-MEM by i.p. on Day 0 (D0). After 4 days (D4), tumor cell growth was determined by measuring luminescence activity using IVIS system (baseline). Each group Bioluminescence images (BLI) was normalized by average BLI of total mice before treatment. […] Animals were monitored individually till death for survival evaluation.
The mice were imaged with the IVIS-50 system (Xenogen, Alameda, Calif.).
Overall survival was defined as the time from the date of tumor implantation to the date of death and is presented as the Kaplan-Meier survival curve.

lung metastases = assay: Lung metastases model (tail vein injection of tumor cells); type: in vivo, SCID mice
Procedure: (7B) Control of lung metastases. Mouse was induced lung metastases by tail vein injection of tumor cells at d1.
Animals were used in compliance with institutional animal health care regulations, and all animal experimental procedures were approved by the Institutional Animal Care and Use Committee. […] Groups of mice were treated. A 2-factor factorial design was implemented with factor 1 (systematic delivery versus regional delivery) and factor 2 (free drug versus nanomedicine). […] The dosing schedule for each paired drugs (free drug and nanomedicine) was given on maximal tolerated dose based on preliminary study. Lung metastases were induced by tail-vein injection, while liver metastases were by splenic injection, and retroperitoneal lymphatic metastases were induced by intra-uterine injection of tumor cells.

[2] = system: human ovarian cancer cell line ES-2; assay: Flow cytometry apoptosis assay of tumor after treatment; type: in vivo, SCID mice; settings: systematic delivery
Excerpt: A single intraperitoneal injection of human ovarian cancer cell line ES-2 (2×10^5 cells per mouse, ATCC no. CRL-1978) at d0 into 5-week-old SCID mice (CB.17 scid/scid) was commenced to generate tumor, which was confirmed via abdominal distension and malignant ascites in 3 weeks. […] Animals were used in compliance with institutional animal health care regulations, and all animal experimental procedures were approved by the Institutional Animal Care and Use Committee. Tumor-bearing mice were euthanized at the endpoint when there were signs of distress, including fur ruffling, rapid respiratory rate, hunched posture, reduced activity, and progressive ascites formation. Groups of mice were treated. A 2-factor factorial design was implemented with factor 1 (systematic delivery versus regional delivery) and factor 2 (free drug versus nanomedicine). […] The dosing schedule for each paired drugs (free drug and nanomedicine) was given on maximal tolerated dose based on preliminary study.

[3] = system: metastatic non-small lung cancer; settings: P=0.271; cited from earlier work
[4] = system: cancer stem cells of ES-2 tumors; assay: Cancer stem cell analysis of treated tumors (tumor sphere, side population, RT-PCR); type: in vivo, SCID mice
Procedure: (8A) Tumor sphere-forming ability of treated tumor. Mouse was implanted with ES-2 cells (2×10^6/mouse) at day 1 and was treated at day 5, day 8, and day 11 at indicated dosage. Tumors were retrieved at day 14 for each indicated group. Tumors were dissociated into single cell suspension and cultured in an ultralow dish for 10 days. […] Representative figures are shown. (8B) Summary of tumor sphere formation (mean±SD). (8C) Flow cytometry analysis of Hoechst 33342-stained cells and identification of side population cells. Percentage of side population cells are shown. (D-G) RT-PCR analysis for the expressions of stemness marker (8D), genes for epithelial-mesenchymal transition (EMT) driver and expression of epithelial or mesenchymal phenotype (8E), genes for tumor angiogenesis (8F), and genes for multidrug resistance (8G). (8H) CXCR4/CXCL12 axis in stem cells maintenance. […] Experiments were repeated in triplicate.

recurrent ovarian tumor = settings: HIPEC, 10 mg/kg
Procedure: Depicted are inflow and outflow ports and anal temperature probe to monitor internal temperature of mouse during perfusion. Mice were perfused for 1 h at the rate of 3 mL/min with Taxol® (10 mg/kg). […] Experiments were repeated in triplicate.

[5] = human, in vivo, ip; cited from earlier work
[6] = hepatic artery infusion; cited from earlier work

Question: Which “therapeutic efficacy (bioluminescence imaging day 14 vs day 4)” value ([1]; 10 mg/kg/mouse, day 5, 8, 11 (FIG. 2B)) does the source give for CC(=O)O[C@H]1C(=O)[C@@]2(C)[C@H]([C@H](OC(=O)c3ccccc3)[C@]3(O)C[C@H](OC(=O)[C@H](O)[C@@H](NC(=O)c4ccccc4)c4ccccc4)C(C)=C1C3(C)C)[C@]1(OC(C)=O)CO[C@@H]1C[C@@H]2O [Taxol®, paclitaxel] here?
Answer: some efficacy

Question: What about the “therapeutic efficacy (bioluminescence imaging day 14 vs day 4)” value ([1]; 10 mg/kg/mouse, day 5, 8, 11 (FIG. 6)) of the same molecule?
Answer: some efficacy

Question: What about the “inhibition of colon tumor growth / antitumor activity” value (CT-26-luc cells; 10 mg/kg i.p.) of the same molecule?
Answer: did not inhibit colon tumor growth

Question: What about the median survival day (CT-26-luc cells; 10 mg/kg i.p.) of the same molecule?
Answer: 26 days

Question: And the survival duration (CT-26-luc cells; 10 mg/kg i.p.)?
Answer: 27 days

Question: And the “inhibition of colon tumor growth” value (CT-26-luc cells; 10 mg/kg i.v.)?
Answer: did not inhibit colon tumor growth

Question: What about the median survival day (CT-26-luc cells; 10 mg/kg i.v.) of the same molecule?
Answer: 24 days

Question: What about the survival duration (CT-26-luc cells; 10 mg/kg i.v.) of the same molecule?
Answer: 27 days

Question: And the “control of lung metastases” value (lung metastases; regional (intrapleural) delivery)?
Answer: some therapeutic efficacy

Question: And the “control of lung metastases” value (lung metastases; systematic delivery)?
Answer: unsatisfactory control of tumor

Question: And the apoptosis of tumor [2]?
Answer: 23.3%

Question: And the median overall survival [3]?
Answer: 11.2 months

Question: And the “CXCR4/CXCL12 expression compared to control group” value ([4]; i.v. delivery)?
Answer: increased expression of CXCR4/CXCL12

Question: And the “side population cells (Hoechst 33342)” value ([4]; regional delivery)?
Answer: increased

Question: What about the “tumor sphere (microsphere) formation of treated tumor” value ([4]; systematic (i.v.) delivery, tumors retrieved day 14, cultured 10 days) of the same molecule?
Answer: increased microsphere formation

Question: And the “side population cells (Hoechst 33342)” value ([4]; systematic delivery)?
Answer: increased

Question: What about the “complications (bowel obstruction or perforation)” value (recurrent ovarian tumor) of the same molecule?
Answer: higher

Question: And the “tumor control of recurrent tumor” value (recurrent ovarian tumor; perfused 1 h at 3 mL/min)?
Answer: good tumor control

Question: For N.N.[Cl][Pt][Cl] [cisplatin], which “therapeutic efficacy (bioluminescence imaging day 14 vs day 4)” value ([1]; 5 mg/kg/mouse, day 5 and 10 (FIG. 3B)) is on record?
Answer: some therapeutic effect

Question: And the “increased exposure to the peritoneal cavity as compared to the systemic compartment” value [5]?
Answer: 20 fold

Question: Which “therapeutic efficacy (bioluminescence imaging day 14 vs day 4)” value ([1]; 5 mg/kg/mouse, day 5 and 10 (FIG. 5)) does the source give for COc1cccc2c1C(=O)c1c(O)c3c(c(O)c1C2=O)C[C@@](O)(C(=O)CO)C[C@@H]3O[C@H]1C[C@H](N)[C@H](O)[C@H](C)O1 [doxorubicin] here?
Answer: some therapeutic effect

Question: With O=c1[nH]c(=O)n([C@H]2C[C@H](O)[C@@H](CO)O2)cc1F [floxuridine] as the molecule, how does the “higher tumor drug levels as compared to portal vein infusion” value [6] read?
Answer: 15 fold

Question: Which “therapeutic efficacy (bioluminescence imaging day 14 vs day 4)” value ([1]; 10 mg/kg/mouse, day 5 and 10 (FIG. 4B)) does the source give for CC[C@@]1(O)C(=O)OCc2c1cc1n(c2=O)Cc2cc3c(CN(C)C)c(O)ccc3nc2-1 [topotecan] here?
Answer: some therapeutic effect
